How the values were obtained:
[1] = target: T1, G2019S human LRRK2, catalytic site (Homo sapiens, UniProt Q5S007, G2019S); experiment: TR-FRET LanthaScreen Eu Kinase Binding Assay, LRRK2 G2019S; settings: LRRK2(G2019); one range stated for wt and G2019; read-out: IC50, Activity Toward LRRK2(G2019)
T1 construct: G2019S human LRRK2, catalytic site; purchased ThermoFisher
Experimental: (§1) The basic protocol for TR-FRET LanthaScreen Eu Kinase Binding Assay inhibitor studies were performed as follows. LanthaScreen Kinase Binding Assays (ThermoFisher/USA) to evaluate inhibitors were performed by addition of 5 μL of test compound in corresponding DMSO dilutions/5 μl of kinase/antibody mixture, 5 μL of tracer into 384 well small volume plates. After incubation for 1 hour at room temperature, plates were read. Data analysis of emission ratios was according LanthaScreen Eu Kinase Binding Assay protocol.
(§2) Kinase and assay components were adjusted to final concentrations according to kit protocol. For LRRK2: 5 nM wt human LRRK2, catalytic site, or G2019S human LRRK2, catalytic site (ThermoFisher/USA), 2 nM Eu-Anti-GST Antibody, 10 nM Kinase Tracer 236 in 1× Kinase Buffer A. For NUAK1: 8 nM wt human NUAK1, full length (ThermoFisher/USA), 2 nM Eu-Anti-His Antibody, 5 nM Kinase Tracer 236 in 1× Kinase Buffer A.

[2] = target: T2, wt human JAK1, catalytic site (Homo sapiens, UniProt P23458); experiment: HTRF KinEASE assay, JAK1; assay type: biochemical; settings: 2.5 μM ATP; read-out: IC50, Activity Toward JAK1
T2 construct: wt human JAK1, catalytic site; purchased ThermoFisher
In short: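 Two-step HTRF KinEASE assay: compound, kinase/biotinylated TK substrate and ATP were incubated at least 30 min at room temperature. Antibody plus streptavidin-XL665 was then added and plates were read after 60 min. Inhibition was derived from emission ratios according to the kit protocol.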

[3] = target: T3, wt human TYK2, catalytic site (Homo sapiens, UniProt P29597); experiment: HTRF KinEASE assay, TYK2; assay type: biochemical; settings: 1 μM ATP; read-out: IC50, Activity Toward TYK2
T3 construct: wt human TYK2, catalytic site; purchased SignalChem
T3 sequence (P29597 897-1176 limits assumed): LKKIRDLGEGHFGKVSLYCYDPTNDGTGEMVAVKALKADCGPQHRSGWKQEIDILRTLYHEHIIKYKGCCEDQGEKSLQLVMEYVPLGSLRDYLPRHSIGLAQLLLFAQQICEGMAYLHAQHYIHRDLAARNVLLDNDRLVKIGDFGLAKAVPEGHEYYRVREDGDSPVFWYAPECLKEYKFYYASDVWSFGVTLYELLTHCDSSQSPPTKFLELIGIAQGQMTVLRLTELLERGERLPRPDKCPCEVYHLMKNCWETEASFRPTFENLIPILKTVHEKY
In short: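 HTRF KinEASE-TK readout with 1 μM biotinylated TK substrate in 1× kinase buffer, ≥30 min at room temperature, then antibody/streptavidin-XL665 detection for 60 min. TYK2 at 2 nM with 1 μM ATP; JAK2 at 1 nM with 100 μM ATP. Analysis uses emission ratios.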

[4] = target: T4, wt human LRRK2, catalytic site (Homo sapiens, UniProt Q5S007); experiment: TR-FRET LanthaScreen Eu Kinase Binding Assay, LRRK2 wt; settings: one range stated for wt and G2019, read-out: IC50, Activity Toward LRRK2(Wt)
T4 construct: 5 nM wt human LRRK2, catalytic site; purchased ThermoFisher
Experimental: as §1, §2

T2 sequence (P23458 875-1153 limits assumed): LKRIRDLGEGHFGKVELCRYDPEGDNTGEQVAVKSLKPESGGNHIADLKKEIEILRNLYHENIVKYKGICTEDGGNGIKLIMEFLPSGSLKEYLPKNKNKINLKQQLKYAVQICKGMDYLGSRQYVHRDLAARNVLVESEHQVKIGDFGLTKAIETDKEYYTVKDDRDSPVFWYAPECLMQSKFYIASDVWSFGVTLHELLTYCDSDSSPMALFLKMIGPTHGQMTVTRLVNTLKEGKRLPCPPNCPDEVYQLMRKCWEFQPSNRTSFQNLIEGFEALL
T1 sequence (Q5S007 970-2527 G2019S limits assumed): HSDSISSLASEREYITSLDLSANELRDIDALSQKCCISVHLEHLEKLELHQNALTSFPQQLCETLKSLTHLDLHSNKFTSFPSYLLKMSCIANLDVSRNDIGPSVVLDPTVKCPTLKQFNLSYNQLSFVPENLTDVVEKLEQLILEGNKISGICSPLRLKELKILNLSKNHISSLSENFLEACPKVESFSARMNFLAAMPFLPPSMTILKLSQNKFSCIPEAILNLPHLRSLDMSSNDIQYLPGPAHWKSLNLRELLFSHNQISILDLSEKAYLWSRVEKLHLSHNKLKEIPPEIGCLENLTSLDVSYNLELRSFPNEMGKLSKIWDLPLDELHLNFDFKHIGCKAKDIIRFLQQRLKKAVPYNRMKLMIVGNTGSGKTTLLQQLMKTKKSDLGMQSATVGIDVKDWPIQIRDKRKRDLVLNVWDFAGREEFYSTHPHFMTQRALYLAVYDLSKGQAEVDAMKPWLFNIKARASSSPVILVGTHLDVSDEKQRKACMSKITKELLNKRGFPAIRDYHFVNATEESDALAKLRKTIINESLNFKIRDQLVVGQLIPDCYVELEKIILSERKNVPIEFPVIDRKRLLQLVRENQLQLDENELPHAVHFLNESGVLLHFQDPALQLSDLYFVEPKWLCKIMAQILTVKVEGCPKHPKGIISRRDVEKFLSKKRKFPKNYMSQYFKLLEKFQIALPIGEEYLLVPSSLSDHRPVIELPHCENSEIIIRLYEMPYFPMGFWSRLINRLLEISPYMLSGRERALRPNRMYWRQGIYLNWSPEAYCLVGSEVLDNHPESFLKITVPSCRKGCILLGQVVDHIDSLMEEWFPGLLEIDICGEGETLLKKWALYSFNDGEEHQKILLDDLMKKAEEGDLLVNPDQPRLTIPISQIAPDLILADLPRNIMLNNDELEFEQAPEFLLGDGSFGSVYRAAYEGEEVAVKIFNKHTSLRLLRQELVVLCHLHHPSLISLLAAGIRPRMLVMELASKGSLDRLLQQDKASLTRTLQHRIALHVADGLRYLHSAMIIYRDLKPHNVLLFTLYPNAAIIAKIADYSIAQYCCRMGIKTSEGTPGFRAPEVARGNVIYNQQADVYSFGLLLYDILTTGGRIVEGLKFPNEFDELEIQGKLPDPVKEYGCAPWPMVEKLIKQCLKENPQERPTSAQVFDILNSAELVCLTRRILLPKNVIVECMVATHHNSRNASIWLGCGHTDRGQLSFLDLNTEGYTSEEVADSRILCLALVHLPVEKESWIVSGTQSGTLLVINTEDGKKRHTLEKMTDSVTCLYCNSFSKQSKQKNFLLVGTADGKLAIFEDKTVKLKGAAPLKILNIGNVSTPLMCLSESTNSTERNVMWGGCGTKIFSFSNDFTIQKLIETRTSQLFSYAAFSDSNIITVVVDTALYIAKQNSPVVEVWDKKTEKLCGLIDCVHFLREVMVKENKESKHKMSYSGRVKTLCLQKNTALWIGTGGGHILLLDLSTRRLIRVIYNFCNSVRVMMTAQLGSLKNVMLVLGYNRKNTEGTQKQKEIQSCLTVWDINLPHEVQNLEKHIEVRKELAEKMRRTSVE
T4 sequence (Q5S007 970-2527 limits assumed): as the sequence (Q5S007 970-2527 G2019S limits assumed) above, with S1050G counted along it

NC(=O)c1nn(-c2c(F)cccc2F)cc1Nc1nc2ccccc2[nH]1 [compound 11, 4-((1H-benzo[d]imidazol-2-yl)amino)-1-(2,6-difluorophenyl)-1H-pyrazole-3-carboxamide]
IC50 [1]: 100 to 1000 nM
IC50 [2]: 100 to 1000 nM
IC50 [3]: 100 to 1000 nM
IC50 [4]: 100 to 1000 nM

NC(=O)c1nn(-c2c(F)cccc2F)cc1Nc1cccc(C(=O)N2CCOCC2)c1 [compound 18, 1-(2,6-difluorophenyl)-4-((3-(morpholine-4-carbonyl)phenyl)amino)-1H-pyrazole-3-carboxamide]
IC50 [1]: 100 to 1000 nM
IC50 [2]: 100 to 1000 nM
IC50 [3]: 100 to 1000 nM
IC50 [4]: 100 to 1000 nM

CC(C)(C)NC(=O)c1ccc(Nc2cn(-c3c(Cl)cccc3Cl)nc2C(N)=O)cc1 [compound 26, 4-((4-(tert-butylcarbamoyl)phenyl)amino)-1-(2,6-dichlorophenyl)-1H-pyrazole-3-carboxamide]
IC50 [1]: 100 to 1000 nM
IC50 [2]: 10 to 100 nM
IC50 [3]: 10 to 100 nM
IC50 [4]: 100 to 1000 nM

CCNC(=O)c1ccc(Nc2cn(-c3c(Cl)cccc3Cl)nc2C(N)=O)cc1 [compound 34, 1-(2,6-dichlorophenyl)-4-((4-(ethylcarbamoyl)phenyl)amino)-1H-pyrazole-3-carboxamide]
IC50 [1]: 100 to 1000 nM
IC50 [2]: 10 to 100 nM
IC50 [3]: 10 to 100 nM
IC50 [4]: 100 to 1000 nM

CC(C)(C)OC(=O)N1CCCC(NC(=O)c2ccc(Nc3cn(-c4c(F)cccc4Cl)nc3C(N)=O)cc2)C1 (centres unmarked) [compound 37, tert-butyl_3-(4-((3-carbamoyl-1-(2-chloro-6-fluorophenyl)-1H-pyrazol-4-yl)amino)benzamido)piperidine-1-carboxylate]
IC50 [1]: 100 to 1000 nM
IC50 [2]: 100 to 1000 nM
IC50 [3]: 100 to 1000 nM
IC50 [4]: 100 to 1000 nM

CCNC(=O)c1ccc(Nc2cn(-c3c(F)cccc3Cl)nc2C(N)=O)cc1 [compound 40, 1-(2-chloro-6-fluorophenyl)-4-((4-(ethylcarbamoyl)phenyl)amino)-1H-pyrazole-3-carboxamide]
IC50 [1]: 100 to 1000 nM
IC50 [2]: 10 to 100 nM
IC50 [3]: 10 to 100 nM
IC50 [4]: 100 to 1000 nM

CC(C)(C)C(=O)c1ccc(Nc2cn(-c3c(F)cccc3Cl)nc2C(N)=O)cc1 [compound 42, 1-(2-chloro-6-fluorophenyl)-4-((4-pivaloylphenyl)amino)-1H-pyrazole-3-carboxamide]
IC50 [1]: 100 to 1000 nM
IC50 [2]: < 10 nM
IC50 [3]: < 10 nM
IC50 [4]: 100 to 1000 nM

Cc1ccnnc1-c1ccc(Nc2cn(-c3c(Cl)cccc3Cl)nc2C(N)=O)cc1 [compound 45, 1-(2,6-dichlorophenyl)-4-((4-(4-methylpyridazin-3-yl)phenyl)amino)-1H-pyrazole-3-carboxamide]
IC50 [1]: 10 to 100 nM
IC50 [2]: 100 to 1000 nM
IC50 [3]: < 10 nM
IC50 [4]: 10 to 100 nM

NC(=O)c1nn(-c2c(Cl)cccc2Cl)cc1Nc1ccc(C(=O)N2CC3(CCC3)C2)cc1 [compound 46, 4-((4-(2-azaspiro[3.3]heptane-2-carbonyl)phenyl)amino)-1-(2,6-dichlorophenyl)-1H-pyrazole-3-carboxamide]
IC50 [1]: 100 to 1000 nM
IC50 [2]: < 10 nM
IC50 [3]: < 10 nM
IC50 [4]: 100 to 1000 nM

CCn1ncnc1-c1ccc(Nc2cn(-c3c(Cl)cccc3Cl)nc2C(N)=O)cc1 [compound 47, 1-(2,6-dichlorophenyl)-4-((4-(1-ethyl-1H-1,2,4-triazol-5-yl)phenyl)amino)-1H-pyrazole-3-carboxamide]
IC50 [1]: 100 to 1000 nM
IC50 [2]: 100 to 1000 nM
IC50 [3]: 10 to 100 nM
IC50 [4]: 100 to 1000 nM

NC(=O)c1nn(-c2c(Cl)cccc2Cl)cc1Nc1ccc(-c2cccnn2)cc1 [compound 49, 1-(2,6-dichlorophenyl)-4-((4-(pyridazin-3-yl)phenyl)amino)-1H-pyrazole-3-carboxamide]
IC50 [1]: 100 to 1000 nM
IC50 [2]: 10 to 100 nM
IC50 [3]: 10 to 100 nM
IC50 [4]: 100 to 1000 nM

CN1CCC(N(C)C(=O)c2ccc(Nc3cn(-c4c(Cl)cccc4Cl)nc3C(N)=O)cc2)CC1 [compound 50, 1-(2,6-dichlorophenyl)-4-((4-(methyl(1-methylpiperidin-4-yl)carbamoyl)phenyl)amino)-1H-pyrazole-3-carboxamide]
IC50 [1]: 100 to 1000 nM
IC50 [2]: 100 to 1000 nM
IC50 [3]: 10 to 100 nM
IC50 [4]: 100 to 1000 nM

Cc1cncnc1-c1ccc(Nc2cn(-c3c(Cl)cccc3Cl)nc2C(N)=O)cc1 [compound 51, 1-(2,6-dichlorophenyl)-4-((4-(5-methylpyrimidin-4-yl)phenyl)amino)-1H-pyrazole-3-carboxamide]
IC50 [1]: 100 to 1000 nM
IC50 [2]: 10 to 100 nM
IC50 [3]: 10 to 100 nM
IC50 [4]: 100 to 1000 nM

CCc1cncnc1-c1ccc(Nc2cn(-c3c(Cl)cccc3Cl)nc2C(N)=O)cc1 [compound 52, 1-(2,6-dichlorophenyl)-4-((4-(5-ethylpyrimidin-4-yl)phenyl)amino)-1H-pyrazole-3-carboxamide]
IC50 [1]: 100 to 1000 nM
IC50 [2]: 100 to 1000 nM
IC50 [3]: 10 to 100 nM
IC50 [4]: 100 to 1000 nM

Cc1ncn(C)c1-c1ccc(Nc2cn(-c3c(Cl)cccc3Cl)nc2C(N)=O)cc1 [compound 53, 1-(2,6-dichlorophenyl)-4-((4-(1,4-dimethyl-1H-imidazol-5-yl)phenyl)amino)-1H-pyrazole-3-carboxamide]
IC50 [1]: 100 to 1000 nM
IC50 [2]: 10 to 100 nM
IC50 [3]: 100 to 1000 nM
IC50 [4]: 100 to 1000 nM

N#Cc1cccnc1-c1ccc(Nc2cn(-c3c(Cl)cccc3Cl)nc2C(N)=O)cc1 [compound 59, 4-((4-(3-cyanopyridin-2-yl)phenyl)amino)-1-(2,6-dichlorophenyl)-1H-pyrazole-3-carboxamide]
IC50 [1]: 100 to 1000 nM
IC50 [2]: 10 to 100 nM
IC50 [3]: 100 to 1000 nM
IC50 [4]: 100 to 1000 nM

N#Cc1ccnnc1-c1ccc(Nc2cn(-c3c(Cl)cccc3Cl)nc2C(N)=O)cc1 [compound 60, 4-((4-(4-cyanopyridazin-3-yl)phenyl)amino)-1-(2,6-dichlorophenyl)-1H-pyrazole-3-carboxamide]
IC50 [1]: 100 to 1000 nM
IC50 [2]: 10 to 100 nM
IC50 [3]: 10 to 100 nM
IC50 [4]: 100 to 1000 nM

NC(=O)c1nn(-c2c(Cl)cccc2Cl)cc1Nc1ccc(-c2nnc3n2CCCCC3)cc1 [compound 63, 1-(2,6-dichlorophenyl)-4-((4-(6,7,8,9-tetrahydro-5H-[1,2,4]triazolo[4,3-a]azepin-3-yl)phenyl)amino)-1H-pyrazole-3-carboxamide]
IC50 [1]: 10 to 100 nM
IC50 [2]: 100 to 1000 nM
IC50 [3]: 10 to 100 nM
IC50 [4]: 10 to 100 nM

CP(C)(=O)c1ccc(Nc2cn(-c3c(F)cccc3F)nc2C(N)=O)cc1 [compound 64, 1-(2,6-difluorophenyl)-4-((4-(dimethylphosphoryl)phenyl)amino)-1H-pyrazole-3-carboxamide]
IC50 [1]: 100 to 1000 nM
IC50 [2]: 100 to 1000 nM
IC50 [3]: 100 to 1000 nM
IC50 [4]: 100 to 1000 nM

NC(=O)c1nn(-c2c(Cl)cccc2Cl)cc1Nc1ccc(-n2ncc3c2CCOC3)cc1 [compound 70, 1-(2,6-dichlorophenyl)-4-((4-(6,7-dihydropyrano[4,3-c]pyrazol-1(4H)-yl)phenyl)amino)-1H-pyrazole-3-carboxamide]
IC50 [1]: 100 to 1000 nM
IC50 [2]: 100 to 1000 nM
IC50 [3]: 10 to 100 nM
IC50 [4]: 100 to 1000 nM

NC(=O)c1nn(-c2c(Cl)cccc2Cl)cc1Nc1ccc(-n2cc3c(n2)CCOC3)cc1 [compound 71, 1-(2,6-dichlorophenyl)-4-((4-(6,7-dihydropyrano[4,3-c]pyrazol-2(4H)-yl)phenyl)amino)-1H-pyrazole-3-carboxamide]
IC50 [1]: 100 to 1000 nM
IC50 [2]: 100 to 1000 nM
IC50 [3]: 100 to 1000 nM
IC50 [4]: 100 to 1000 nM

Cc1ccnn1-c1ccc(Nc2cn(-c3c(Cl)cccc3Cl)nc2C(N)=O)cc1 [compound 80, 1-(2,6-dichlorophenyl)-4-((4-(5-methyl-1H-pyrazol-1-yl)phenyl)amino)-1H-pyrazole-3-carboxamide]
IC50 [1]: 100 to 1000 nM
IC50 [2]: 10 to 100 nM
IC50 [3]: 10 to 100 nM
IC50 [4]: 100 to 1000 nM

NC(=O)c1nn(-c2c(Cl)cccc2Cl)cc1Nc1ccc(C(=O)N2CCN(CC(F)F)CC2)cc1 [compound 83, 1-(2,6-dichlorophenyl)-4-((4-(4-(2,2-difluoroethyl)piperazine-1-carbonyl)phenyl)amino)-1H-pyrazole-3-carboxamide]
IC50 [1]: 100 to 1000 nM
IC50 [2]: 100 to 1000 nM
IC50 [3]: < 10 nM
IC50 [4]: 100 to 1000 nM
